Data as given in ChEMBL document CHEMBL1201862, “PubChem BioAssay data set” (2004).
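Where inhibition never reached the appropriate level, the endpoint shown equals the highest concentration tested. Otherwise, values were interpolated linearly from a five-concentration, 48-hour dose response in 96-well plates. GI50: concentration for 50% inhibition of growth.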 The source made the active and inactive calls. No stated cut-off is given here; in the data, active = GI50 up to about 1.1 µM and inactive = higher.

Legend:
Assay in all cases: NCI tumour cell line growth inhibition, 48 h
[1] = test system: T47D
[2] = test system: OVCAR-3
[3] = test system: UO-31
[4] = test system: OVCAR-5
[5] = test system: SK-MEL-5
[6] = test system: NCI-H460
[7] = test system: SK-MEL-28
[8] = test system: UACC-62
[9] = test system: NCI-H522
[10] = test system: BT-549
[11] = test system: HOP-92
[12] = test system: U-251
[13] = test system: MDA-MB-435
[14] = test system: SK-MEL-2
[15] = test system: KM12
[16] = test system: IGROV-1
[17] = test system: HT-29
[18] = test system: K562
[19] = test system: SK-OV-3
[20] = test system: HOP-62

Measured: GI50

NC(=O)CSc1nc2ccccc2c(=O)n1N
inactive: [1] > 100 µM | [2] > 100 µM | [3] > 100 µM | [4] > 100 µM | [5] > 100 µM | [6] > 100 µM | [7] > 100 µM | [8] > 100 µM | [9] > 100 µM | [10] > 100 µM | [11] > 100 µM | [12] > 100 µM | [13] > 100 µM | [14] > 100 µM | [15] > 100 µM | [16] > 100 µM | [17] > 100 µM | [18] > 100 µM

CCOC(=O)C(C(=O)OCC)C(=S)NC1OC(COC(C)=O)C(OC(C)=O)C(OC(C)=O)C1OC(C)=O (stereo not drawn)
inactive: [1] > 100 µM | [2] > 100 µM | [19] > 100 µM | [3] > 100 µM | [4] > 100 µM | [20] > 100 µM | [5] > 100 µM | [6] > 100 µM | [7] > 100 µM | [8] > 100 µM | [9] > 100 µM | [10] > 100 µM | [11] > 100 µM | [12] > 100 µM | [13] > 100 µM | [14] > 100 µM | [15] > 100 µM | [16] > 100 µM | [17] > 100 µM

S=c1c2cc(I)ccc2nc(S)n1Cc1ccccc1
inactive: [1] 1.5 µM | [2] 2.9 µM | [19] 4.1 µM | [3] 3.37 µM | [4] 17 µM | [20] 2.87 µM | [5] 3.17 µM | [6] 3.28 µM | [7] 3.79 µM | [9] 4.38 µM | [10] 4.42 µM | [11] 2.69 µM | [12] 3.46 µM | [13] 4.1 µM | [14] 3.14 µM | [15] 3.42 µM | [16] 4.05 µM | [17] 18.4 µM | [18] 3.54 µM

COC(=O)C1=C(O)C(C(=O)OC)[C@]2(O)[C@H](C(=O)OC)[C@H]1C[C@@H](c1ccc(C(F)(F)F)cc1)[C@H]2C(=O)OC (stereo partly drawn)
inactive: [1] 3.44 µM | [2] 3.78 µM | [19] 6.35 µM | [3] 2.84 µM | [4] 3.63 µM | [20] 6.87 µM | [5] 2.49 µM | [6] 3.34 µM | [7] 4.89 µM | [8] 3.87 µM | [10] 3.25 µM | [11] 5.27 µM | [12] 2.41 µM | [13] 3.36 µM | [14] 2.79 µM | [15] 5.37 µM | [16] 5.15 µM | [17] 4.68 µM | [18] 2.62 µM

CC(C#N)NCc1ccc(C(C)NC(C)C#N)cc1 (stereo not drawn)
inactive: [1] > 100 µM | [2] > 100 µM | [19] > 100 µM | [3] 93.1 µM | [4] > 100 µM | [5] > 100 µM | [6] > 100 µM | [7] > 100 µM | [8] > 100 µM | [9] > 100 µM | [10] > 100 µM | [11] > 100 µM | [12] > 100 µM | [13] > 100 µM | [14] > 100 µM | [15] > 100 µM | [16] > 100 µM | [17] > 100 µM | [18] > 100 µM

C(=N\c1ccc(-c2nc3ccccc3o2)cc1)/c1ccco1
inactive: [1] 38.6 µM | [3] 41.4 µM | [4] > 100 µM | [5] 30.8 µM | [7] > 100 µM | [9] 44.2 µM | [10] 77.4 µM | [11] 30.8 µM | [13] 75.9 µM | [14] 87.1 µM | [16] 49.4 µM | [17] 63.5 µM

C=C1N(S(=O)(=O)c2ccc(C)cc2)C(=O)OCC12CCCC2
inactive: [1] 27.2 µM | [2] 52.4 µM | [19] 41.4 µM | [3] 84.3 µM | [4] > 100 µM | [5] 25.4 µM | [6] 96.4 µM | [7] > 100 µM | [8] 34.6 µM | [9] > 100 µM | [10] > 100 µM | [11] > 100 µM | [12] 76 µM | [13] > 100 µM | [15] > 100 µM | [16] 31.3 µM | [17] 54.7 µM | [18] 94.2 µM

CCOC(=O)c1sc2nc(SC)nc3c2c1NCN3c1ccc2c(c1)OCO2
inactive: [1] 18.9 µM | [2] 10.8 µM | [19] 10.7 µM | [3] 15.5 µM | [4] 97.5 µM | [20] 5.93 µM | [5] 67.5 µM | [7] 8.04 µM | [8] 12.2 µM | [9] 31.1 µM | [10] 30.1 µM | [11] 12.5 µM | [12] 7.03 µM | [13] 14.8 µM | [14] 18.3 µM | [15] > 100 µM | [16] 26.1 µM | [17] 31.3 µM | [18] 35 µM
